Calls of active or inactive are those of the source. The rule behind the calls is not given here.
Experiments:
H9c2 [1] = experiment: Upregulation of ER-alpha expression in rat H9c2 cells after 24 hrs by western blot analysis; type: functional, cell-based
H9c2 [2] = experiment: Upregulation of ER-beta expression in rat H9c2 cells after 24 hrs by western blot analysis; type: functional, cell-based
H9c2 [3] = experiment: Inhibition of H2O2-induced loss of cell viability in rat H9c2 cells at 5,10 and 20 uM after 24 hrs by MTT assay; type: functional, cell-based
H9c2 [4] = experiment: Inhibition of H2O2-induced apoptosis in rat H9c2 cells after 24 hrs by AO/EB staining based fluorescence microscopic analysis; type: functional, cell-based
H9c2 [5] = experiment: Inhibition of H2O2-induced loss of cell viability in rat H9c2 cells at 5,10 and 20 uM after 24 hrs by MTT assay in presence of ER inhibitor ICI182780; type: functional, cell-based
H9c2 [6] = experiment: Inhibition of H2O2-induced apoptosis in rat H9c2 cells at 5,10 and 20 uM after 24 hrs by AO/EB staining based fluorescence microscopic analysis in presence of ER inhibitor ICI182780; type: functional, cell-based
[7] = molecular target: T1, Estrogen receptor (Rattus norvegicus) (UniProt P06211+Q62986); experiment: Activation of ER-alpha/beta in rat H9c2 cells assessed as increase in phosphorylated Akt level after 24 hrs by western blot analysis; type: cell-based
[8] = molecular target: T1, Estrogen receptor (Rattus norvegicus); experiment: Activation of ER-alpha/beta in rat H9c2 cells assessed as phosphorylated Akt level at 5,10 and 20 uM after 24 hrs by western blot analysis in presence of ER inhibitor ICI182780; type: cell-based

- Activity [7]: Active
- Activity [8]: inactive
SMILES: COc1ccc(-c2coc3cc(O)ccc3c2=O)cc1O
- Activity (H9c2 [1]): Dose-dependent effect
- Activity (H9c2 [2]): Dose-dependent effect
- inhibition (H9c2 [3]): Active
- inhibition (H9c2 [4]): Dose-dependent effect
- inhibition (H9c2 [5]): inactive
- inhibition (H9c2 [6]): inactive
